The values below come from article PMC2879362, “Design of Group IIA Secreted/Synovial Phospholipase A2 Inhibitors: An Oxadiazolone Derivative Suppresses Chondrocyte Prostaglandin E2 Secretion” (PLoS ONE, 2010).

What is called IC50 is the point on the concentration scale where inhibition reaches its midpoint. Low values mean inhibition by little substance, high ones a need for much substance.

Test [1] concerns the target T1, human GIIAPLA2 (hGIIAPLA2) (Homo sapiens, UniProt P14555).
T1 construct: hGIIAPLA2 was prepared as previously described [33]; made in house
T1 sequence (P14555 21-144): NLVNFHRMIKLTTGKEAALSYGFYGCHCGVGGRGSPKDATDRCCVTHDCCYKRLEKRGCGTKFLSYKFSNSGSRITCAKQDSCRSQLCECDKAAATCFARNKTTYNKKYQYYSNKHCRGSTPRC
Kind of test: In vitro fluorimetric PLA2 assay (β-py-C10-PG substrate). The test is classed as biochemical. To be noted: 2 µM β-py-C10-PG, 1 ng/mL hGIIAPLA2. As for the experimental part: (§1) The compounds C1-C8 were submitted to fluorimetric assay to determine their inhibitory potencies and selectivity towards human GIIAPLA2 (hGIIAPLA2) versus porcine group IB PLA2 (pGIBPLA2) (Table 2). GIBPLA2 is an enzyme of the same family as GIIAPLA2 (sPLA2) but is mainly involved in digestion of dietary phospholipids and is secreted by the pancreas. Lipophilicity parameters, log P, of these products are calculated by use of Rekker's fragmental data (Table 2). The molecules C1-C8 are specific inhibitors of hGIIAPLA2 because none inhibited pGIBPLA2 at the highest concentration tested (100 µM). Such selectivity implies that C1-C8 should not interfere with the digestion process.
(§2) Fatty-acid free BSA and pancreatic PLA2 were from Sigma. hGIIAPLA2 was prepared as previously described. The fluorescent substrate for PLA2 assay, 1-hexadecanoyl-2-(10-pyrenedecanoyl)-sn-glycero-3-phosphoglycerol, ammonium salt (β-py-C10-PG) was from Molecular Probes (Eugene). PLA2 activity was evaluated as previously described with β-py-C10-PG used as a substrate (2 µM final concentration). In a total volume of 1 mL, the standard reaction medium contained 50 mM Tris-HCl (pH 7.5), 500 mM NaCl, 1 mM EGTA, 2 µM β-py-C10-PG, 0.1% fatty-acid free BSA and 6 ng/mL pancreatic PLA2 or 1 ng/mL hGIIAPLA2. The fluorescence (λex = 342 nm and λem = 398 nm) of the enzymatic reaction medium was recorded for 3 min with use of a spectrofluorimeter LS 50 (Perkin-Elmer) equipped with a Xenon lamp. The reaction was initiated by the addition of CaCl2 (10 mM, final concentration). The increase in fluorescence was continuously recorded for 1 min, and PLA2 activity was calculated as previously described. When used, the inhibitor was added to the reaction medium after introduction of BSA. The activity is expressed in micromoles of fluorescent β-py-C10-PG hydrolyzed per min. The standard error of the mean of three independent experiments was less than 10%, which allows for the determination of the IC50 values (concentration of inhibitors producing 50% inhibition) of each compound.

Test [2] has as its target T2, porcine group IB PLA2 (pGIBPLA2) (Sus scrofa, UniProt P00592).
T2 construct: purchased Sigma
Described as above. The test is classed as biochemical. To be noted: 2 µM β-py-C10-PG, 6 ng/mL pancreatic PLA2. As for the experimental part:
as §1, §2

In test [3] the test system is IL-1β-stimulated PGE2 secretion in articular chondrocytes. The test can be described thus: IL-1β-stimulated PGE2 secretion in articular chondrocytes (EIA). Format: cell-based, rabbit. To be noted: C1 at 8 µM, IL-1β 1 ng/mL (data not shown). As for the experimental part:
We tested the effect of C8 on the IL-1β-stimulated secretion of PGE2 in chondrocytes. PGE2 synthesis takes place mainly in response to cell activation by IL-1β, and its generation accounts for many of the actions induced by this cytokine. In vitro, IL-1β induces the expression of COX-2 by chondrocytes, which results in increased PGE2 production. PGE2 release thus represents a powerful IL-1β- and PLA2-dependent inflammatory marker in our cell model. Chondrocytes were treated for 20 h with IL-1β alone or 1 h after the addition of C8. […] In DMEM alone, at concentrations of 0.31-, 0.62-, 0.94-, and 1.24-µM, C8 decreased the production of PGE2 induced by IL-1β by 59-, 58-, 74-, and 80-%, respectively (Fig. 4A). In DMEM supplemented with 0.1% BSA, at concentrations of 0.31-, 0.62-, 0.94-, 1.24-, 2.48-, and 4.96-µM, C8 decreased the production of PGE2 induced by IL-1β by 31-, 30-, 45-, 43-, 81-, and 92-%, respectively (Fig. 4B). In DMEM supplemented with 2% FCS, at concentrations of 0.31-, 0.62-, 0.94-, 1.24-, 2.48-, and 4.96-µM, C8 decreased the production of PGE2 induced by IL-1β by 26-, 48-, 49-, 54-, 68-, and 68-%, respectively (Fig. 4C). […] The effect of C8 was then evaluated at the extreme concentrations (0.31- and 4.96-µM) in DMEM supplemented with 2% FCS and containing decreasing (1-, 0.5-, and 0.25-ng/mL) IL-1β concentrations (Table 3). The anti-IL-1β inhibitory effect of C8 at 0.31 µM increases when IL-1β concentration decreases. […] This is probably due to the fact that at 4.96 µM, the inhibitory effect of C8 on IL-1β-induced PGE2 production is maximal. […] Thus, C8, but not C1, decreases the IL-1β-stimulated PGE2 secretion in a dose-dependent manner in the three culture medium compositions used.
Articular chondrocytes were isolated from 5-week-old Fauve de Bourgogne female rabbits (CPA, Orleans, France) and cultured at the first passage in conditions avoiding cell dedifferentiation as previously described. Cells were cultured at 37°C in 12-well plates in Ham's F-12 medium containing 10% FCS, 20 IU/mL penicillin, and 20 µg/mL streptomycin (all from Invitrogen) until nearly confluent. Then medium was replaced with DMEM (Invitrogen) containing 20 IU/mL penicillin, and 20 µg/mL streptomycin and, if necessary, 0.1% fatty acid free BSA (Sigma) or 2% FCS. At this time the C8 compound dissolved in DMSO (Sigma) was added to the medium (the amount of DMSO was kept at 1‰ (v/v) in all the wells). 1 h after the addition of C8, IL-1β (PeproTech) was added to the medium. Consequently, chondrocytes were incubated for 20 h with IL-1β and for 21 h with C8.
20 h after the addition of IL-1β to the chondrocytes, culture media were collected, and aliquots were stored at −80°C until PGE2 and nitrite quantification. PGE2 concentration in culture media was determined by use of an enzyme immunoassay (EIA) kit (PGE2 EIA Kit-monoclonal; Cayman Chemical). Nitrite concentration was determined by a spectrophotometry method based on the Griess reaction. Briefly, 200 µL of culture medium or sodium nitrite (NaNO2, Merck) standard dilutions were mixed with 100 µL Griess reagent [0.5% (w/v) sulphanilic acid (Merck), 0.05% (w/v) N(1-naphtyl)ethylenediamine (Merck), 30% (v/v) acetic acid, 1.5 N HCl] and incubated for 10 min at 50°C. The absorbance was measured at 540 nm.

Test [4] deals with atherosclerosis in apolipoprotein-E-null mice. Set-up: method as in PMID 19129734. To be noted: cited from earlier work.

T2 sequence (P00592 23-146): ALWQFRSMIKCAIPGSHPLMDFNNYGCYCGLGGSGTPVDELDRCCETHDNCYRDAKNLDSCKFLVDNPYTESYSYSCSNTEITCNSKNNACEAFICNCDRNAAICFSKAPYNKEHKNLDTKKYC

For the molecule `O=c1[nH]c(Cc2ccc(OCCCCCn3ccc4ccccc43)cc2)no1` [C1, 3-{4-[5-(indol-1-yl)pentoxy]benzyl}-4H-1,2,4-oxadiazol-5-one], the results for the IC50 in test [1] and in test [2] were 5 ± 0.7 µM and above 100 µM, respectively. Further, in test [3], the “effect on PGE2 secretion stimulated by IL-1β” value is on record as “does not decrease”.
On to `O=c1[nH]c(Cc2ccc(OCCCCCOc3ccccc3-c3ccccc3)cc2)no1` [C2], for which the values for the IC50 in test [1] and in test [2] were 10 ± 1.5 µM and above 100 µM, respectively.
`O=c1[nH]c(Cc2ccc(OCCCCCOc3ccccc3)cc2)no1` [C7]: the IC50 in test [1] is 35 ± 1.8 µM; in test [2] it was above 100 µM.
As to `O=c1[nH]c(Cc2ccc(OCCCCCn3ccc4cc(Cl)ccc43)cc2)no1` [C4], the IC50 is 6.5 ± 1.8 µM in test [1] and above 100 µM in test [2].
In the case of `CCc1c(C(=O)C(N)=O)c2c(OCC(=O)O)cccc2n1Cc1ccccc1` [Varespladib], the effect on atherosclerosis result in test [4] is on record as “reduce atherosclerosis”.
Regarding `Cc1nc2cc(OCCCCCOc3ccc(Cc4noc(=O)[nH]4)cc3)ccc2s1` [C3], the IC50 in test [1] was 5 ± 1.2 µM; in test [2], above 100 µM.
For `COc1ccc2c(ccn2CCCCCOc2ccc(Cc3noc(=O)[nH]3)cc2)c1` [C5], the IC50 in test [1] is 2.5 ± 0.5 µM; in test [2] it was above 100 µM.
The like results for `O=c1[nH]c(Cc2ccc(OCCCCCOc3ccc(-c4ccccc4)cc3)cc2)no1` [C6] were, in that order, 3 ± 0.2 µM and above 100 µM.
